Data published in PubChem BioAssay AID449753 (NMMLSC, 2010).
The source made the active and inactive calls.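 How the source made its calls: active means EC50 under 30000 nM from a falling dose curve whose fit quality and slope passed set checks; inactive means the rest.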

System: not listed separately
Test: age-related ROS inhibitors in S. cerevisiae – DHE fluorescence, primary hits, dose response (AID 449753)
Details: S. cerevisiae aged culture, superoxide DHE fluorescence, 7 d; at 30 µM (top of the series)

| Structure (SMILES) | percent response (superoxide), lower = inhibition |
| --- | --- |
| O=c1[nH]c(O)c(C=Nc2ccc(F)c(Cl)c2)c(=O)[nH]1 | 107 (inactive) |
| N#CC(c1nc2ccccc2nc1N1CCCC1)S(=O)(=O)c1ccccc1 (stereo unspecified) | 98.7 (inactive) |
| O=C(Nc1cccc(Cl)c1)Nc1ccc2nccnc2c1 | 87.1 (inactive) |
| C=CCOn1c(=O)c(-c2cccs2)[n+]([O-])c2ccccc21 | 104 (inactive) |
| CCc1nc(NC(C)(C)C)c2cnn(-c3ccccc3)c2n1 | 88 (inactive) |
| O=C(OCc1c(F)cccc1Cl)c1cnc2ccccc2n1 | 117 (inactive) |
| O=C(O)c1cnc2ccccc2n1 | 114 (inactive) |
| COc1ccc2nc3ccccc3nc2c1NC(=O)c1ccccc1Cl | 56.6 (inactive) |
| CC(C)OC(=O)CSc1nnc(-c2ccc(Cl)cc2Cl)o1 | 112 (inactive) |
| CCN(CC)C(=O)CSc1nnc(-c2cccc(OC)c2)o1 | 92.6 (inactive) |
| C[C@]12CCC3C(CC[C@H]4C[C@@H](O)CC[C@]34C)[C@H]1CC[C@H]2O (stereo partly specified) | 64.7 (inactive) |
| CN(C)CCNc1ncnc2c1cnn2-c1ccc(Cl)cc1 | 99.2 (inactive) |
| O=C(Nc1ccc2nc3ccccc3nc2c1)c1ccc(Br)cc1 | 105 (inactive) |
| CC(=O)O[C@H]1CCC2C3CC[C@H]4[C@@H](O)[C@H](O)CC[C@]4(C)C3CC[C@@]21C (stereo partly specified) | 90.2 (inactive) |
| C[C@]12CCC3C(CC[C@H]4C[C@@H](O)CC[C@]34C)C1CC[C@@H]2OC(=O)[C@H](N)CCCCN (stereo partly specified) | 71.9 (inactive) |
| N#CCc1nn(-c2ccccc2)c2ncnc(N)c12 | 96.7 (inactive) |
| C#C[C@]1(O)[C@H](O)CC2C3CC[C@H]4C[C@@H](O)CC[C@]4(C)C3CC[C@@]21C (stereo partly specified) | 87.4 (inactive) |
| O=C(/C=C/c1cccs1)NC(=S)NNC(=O)Cc1cccs1 | 121 (inactive) |
| CC(=O)[C@@]1(O)CCC2C3CC[C@H]4C[C@@H](O)CC[C@]4(C)C3CC[C@@]21C (stereo partly specified) | 129 (inactive) |
| O=C(/C=C/c1ccccc1)NC(=S)NNC(=O)Cc1cccs1 | 83 (inactive) |
| O=C(Nc1ccc2nc3ccccc3nc2c1)c1ccccc1 | 57.7 (inactive) |

System: S. cerevisiae aged culture, superoxide DHE fluorescence, 7 d
Test: as above
Details: not given

| Structure (SMILES) | EC50 |
| --- | --- |
| O=C1c2c(O)ccc(O)c2C(=O)c2c(NCCNCCO)ccc(NCCNCCO)c21 | 5.25 µM |
| C#CCSc1nnc(-c2ccc([N+](=O)[O-])cc2)o1 | 4.72 µM |
| C=C1C(O)[C@@H]2O[C@]3(CC[C@H](/C=C/C(C)[C@@H]4CC(C)=CC5(O[C@H](C[C@@](C)(O)C(=O)O)CCC5O)O4)O3)CC[C@H]2O[C@@H]1C(O)CC(C)[C@H]1OC2(CCCCO2)CCC1C (stereo partly specified) | 0.1 µM |
| c1ccc2nc3ccccc3nc2c1 | 0.44 µM |
| CC(C)(C)Nc1ncnc2c1cnn2-c1ccccc1 | 0.47 µM |
| c1ccc2[nH]c3cc4ncnc4cc3nc2c1 | 0.04 µM |
| Nc1cc2nc3ccccc3nc2cc1N | 1.85 µM |
| CNC(=O)c1cccc2nc3ccccc3nc12 | 14.5 µM |
| C[C@]12CCC3C(CC[C@H]4C[C@H](O)CC[C@]34C)C1CCC2=O (stereo partly specified) | 0.63 µM |
| [O-][n+]1c2ccccc2[n+]([O-])c2cc(O)ccc21 | 0.94 µM |
| Cc1ccc(-c2nn(C(C)(C)C)c3ncnc(N)c23)cc1 | 3.03 µM |
| COC(=O)c1cccc2nc3c(C(C)O)cccc3nc12 (stereo unspecified) | 1.29 µM |
| CNc1ccc2nc3ccccc3[n+](C)c2c1 | 10.1 µM |
| Cn1c(O)c(C(=Nc2ccc(F)cc2)c2ccccc2Cl)c(=O)n(C)c1=O | 3.14 µM (inactive) |
| COc1ccc2nc3ccccc3nc2c1N | 0.66 µM |
| CCC(=Nc1ccccc1O)C1=C(O)CC(c2ccccc2)CC1=O (stereo unspecified) | 1.63 µM |
| COc1ccc2c3c(cccc13)N(C)N=C2C | 7.91 µM |
| FC(F)(F)c1nc2cc3nc4ccccc4[nH]c3cc2n1 | 0.21 µM |
| CC(C)(C)n1nc(-c2ccc(Cl)cc2)c2c(N)ncnc21 | 4.79 µM |
| CC(C)OC(=O)c1ccc2nc3ccccc3nc2c1 | 16.7 µM |
| C[C@]12CCC3C(CC[C@H]4C[C@H](O)CC[C@]34C)C1C[C@@H](CCCCl)[C@@H]2O (stereo partly specified) | 0.5 µM |
| C=CCSc1nnc(-c2ccc([N+](=O)[O-])cc2)o1 | 2.9 µM |
| CC(C)(C)n1nc(-c2ccc(F)cc2)c2c(N)ncnc21 | 5.17 µM |
| OCC[n+]1c2ccccc2nc2ccc(N3CCOCC3)cc21 | 3.81 µM |
| COc1ccc2c(c1)c1nnc(SC)nc1n2C | 3.23 µM |
